The results in this text go back to patent publication US9902703B2, “Somatostatin modulators and uses thereof” (Crinetics Pharmaceuticals, Inc., priority 2015, dated 2018).

SMILES strings stand for the structures.

T1 sequence (P30874 whole entry): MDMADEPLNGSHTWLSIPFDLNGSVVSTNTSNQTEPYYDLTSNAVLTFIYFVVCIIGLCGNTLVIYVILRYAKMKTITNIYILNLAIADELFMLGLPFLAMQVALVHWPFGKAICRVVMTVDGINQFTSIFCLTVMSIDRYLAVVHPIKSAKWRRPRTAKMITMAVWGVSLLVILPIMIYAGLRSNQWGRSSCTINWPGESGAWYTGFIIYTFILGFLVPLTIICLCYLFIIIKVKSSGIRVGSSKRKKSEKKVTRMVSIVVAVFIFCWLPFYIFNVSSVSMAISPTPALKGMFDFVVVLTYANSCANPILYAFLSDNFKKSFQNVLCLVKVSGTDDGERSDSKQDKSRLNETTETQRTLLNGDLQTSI

The test addresses T1, human somatostatin receptor subtype 2 (Homo sapiens, UniProt P30874).
T1 construct: expressed in transfected cells; host or cells: CHO (Chinese hamster ovary) cells, G-418 selected
Nature of the test: cAMP assay (functional assay for SSTR2 agonists). The format is cell-based. The settings on record: CHO cells expressing human SSTR2; intracellular cAMP with forskolin, HTRF; read-out: SSTR2a EC50. The source says: Functional Assay for SSTR2 Agonists
General overview: All five SSTR subtypes are Gi coupled G-protein coupled receptors (GPCRs) that lead to decreases in intracellular cyclic AMP (cAMP) when activated by an agonist. Therefore, measurement of intracellular cAMP levels can be used to assess whether compounds of the invention are agonists of SSTR subtypes (John Kelly, Troy Stevens, W. Joseph Thompson, and Roland Seifert, Current Protocols in Pharmacology, 2005, 2.2.1-2.2). One example of an intracellular cAMP assay is described below.
One day prior to the assay, 40,000 Chinese hamster ovary (CHO) cells expressing the human somatostatin receptor subtype 2 are plated in each well of a 96-well tissue culture plate in DM-MEM growth media (Gibco) with the following additives: 10% fetal bovine serum (Gibco), 100 U/mL penicillin (Gibco), 100 ug/mL streptomycin (Gibco), 10 mM HEPES (Gibco), 1.2 mM sodium hydroxide, 0.5 mg/mL G-418 (Gibco)). The cells are cultured overnight at 37° C., 5% CO2 and 95% humidity. On the day of the assay, the media is aspirated and the cells are washed with 1× Dulbecco's phosphate buffered saline (Gibco). Next, 5 μL of assay buffer (1× Earle's Balanced Salt Solution (Gibco), 5 mM MgCl2, 10 mM HEPES, 0.1% bovine serum albumin, 0.2 mM 3-Isobutyl-1-methylxanthine (IBMX, Biomol Research Labs)) and forskolin is added. Various dilutions of the compounds of the invention are prepared in assay buffer and 5 μL of the dilutions are added to the cultured cells and incubated for 15 minutes at 37° C. […] 10 μL of lysis buffer (HRTF cAMP kit, Cisbio) containing cAMP detection and visualization antibodies are added and the assay is allowed incubate for 1-24 hours at room temperature. The intracellular cAMP concentrations are then measured using a commercially available detection kit (for example, the cAMP HTRF kit, Cisbio). The measured intracellular cAMP concentrations are plotted vs. the concentration of the compounds of the invention and the EC50 of the compounds are calculated using standard methods.
(Cyclic AMP is a second messenger, typically raised through Gs and lowered through Gi signalling.)
For `Cc1cc(Cl)cc(N2C=Nc3cc(C)c(-c4ccncc4Cl)cc3C2C(=O)N(C)C[C@@H]2CCCN2)c1` (stereo partly drawn) [Compound 2-26, 3-(3-chloro-5-methylphenyl)-6-(3-chloropyridin-4-yl)-N,7-dimethyl-N-[(2S)-pyrrolidin-2-ylmethyl]-3,4-dihydroquinazoline-4-carboxamide], the EC50 was 100 to 1000 nM.

Regarding `Cc1cc(Cl)cc(N2C=Nc3cc(C)c(-c4cccc(O)c4)cc3C2C(=O)N(C)C[C@@H]2CC(F)(F)CN2)c1` (stereo partly drawn) [Compound 1-55, 3-(3-chloro-5-methylphenyl)-N-{[(2S)-4,4-difluoropyrrolidin-2-yl]methyl}-6-(3-hydroxyphenyl)-N,7-dimethyl-3,4-dihydroquinazoline-4-carboxamide], the EC50 was below 100 nM. The same measure for `Cc1cc(Cl)cc(N2C=Nc3cc(C)c(-c4cc(O)ccc4F)cc3C2C(=O)N(C)C[C@@H]2CCCN2)c1` (stereo partly drawn) [Compound 1-19, 3-(3-chloro-5-methylphenyl)-6-(2-fluoro-5-hydroxyphenyl)-N,7-dimethyl-N-[(2S)-pyrrolidin-2-ylmethyl]-3,4-dihydroquinazoline-4-carboxamide]: below 100 nM. The same measure for `CC[C@H](N)CN(C)C(=O)C1c2cc(-c3cc(O)cc(F)c3)c(Cl)cc2N=CN1c1cc(C)cc(C)c1` (stereo partly drawn) [Compound 1-6, N-[(2S)-2-aminobutyl]-7-chloro-3-(3,5-dimethylphenyl)-6-(3-fluoro-5-hydroxyphenyl)-N-methyl-3,4-dihydroquinazoline-4-carboxamide]: below 100 nM; for `Cc1cc(F)cc(N2C=Nc3cc(C)c(-c4cccc(O)c4)cc3C2C(=O)N(C)C[C@@H]2CCCN2)c1` (stereo partly drawn) [Compound 1-25, 3-(3-fluoro-5-methylphenyl)-6-(3-hydroxyphenyl)-N,7-dimethyl-N-[(2S)-pyrrolidin-2-ylmethyl]-3,4-dihydroquinazoline-4-carboxamide]: below 100 nM.

With `Cc1cc(Cl)cc(N2C=Nc3cc(C)c(-c4cc(C(N)=O)ccn4)cc3C2C(=O)N(C)C[C@@H]2CCCN2)c1` (stereo partly drawn) [Compound 2-14, 6-(4-carbamoylpyridin-2-yl)-3-(3-chloro-5-methylphenyl)-N,7-dimethyl-N-[(2S)-pyrrolidin-2-ylmethyl]-3,4-dihydroquinazoline-4-carboxamide], the EC50 lay within 100 to 1000 nM. In the case of `COc1cc(F)cc(N2C=Nc3cc(C)c(-c4cc(O)ccc4F)cc3C2C(=O)N(C)C[C@@H]2CCCN2)c1` (stereo partly drawn) [Compound 1-22, 6-(2-fluoro-5-hydroxyphenyl)-3-(3-fluoro-5-methoxyphenyl)-N,7-dimethyl-N-[(2S)-pyrrolidin-2-ylmethyl]-3,4-dihydroquinazoline-4-carboxamide] it was below 100 nM; in that of `Cc1cc(Cl)cc(N2C=Nc3cc(C)c(-c4cc(C)oc4C)cc3C2C(=O)N(C)C[C@@H]2CCCN2)c1` (stereo partly drawn) [Compound 2-25, 3-(3-chloro-5-methylphenyl)-6-(2,5-dimethylfuran-3-yl)-N,7-dimethyl-N-[(2S)-pyrrolidin-2-ylmethyl]-3,4-dihydroquinazoline-4-carboxamide], 100 to 1000 nM. The same measure for `Cc1cc(C)cc(N2C=Nc3ccc(-c4cccc(O)c4)cc3C2C(=O)N(C)C[C@H](C)N)c1` (stereo partly drawn) [Compound 1-1, N-[(2S)-2-aminopropyl]-3-(3,5-dimethylphenyl)-6-(3-hydroxyphenyl)-N-methyl-3,4-dihydroquinazoline-4-carboxamide]: 100 to 1000 nM; for `Cc1cc(Cl)cc(N2C=Nc3cc(C)c(-c4cccc(O)c4C#N)cc3C2C(=O)N(C)C[C@@H]2CCCN2)c1` (stereo partly drawn) [Compound 2-31, 3-(3-chloro-5-methylphenyl)-6-(2-cyano-3-hydroxyphenyl)-N,7-dimethyl-N-[(2S)-pyrrolidin-2-ylmethyl]-3,4-dihydroquinazoline-4-carboxamide]: 100 to 1000 nM; for `Cc1cc(Cl)cc(N2C=Nc3cc(C)c(-c4cc(F)cc(C#N)c4)cc3C2C(=O)N(C)C[C@@H]2CCCN2)c1` (stereo partly drawn) [Compound 1-38, 3-(3-chloro-5-methylphenyl)-6-(3-cyano-5-fluorophenyl)-N,7-dimethyl-N-[(2S)-pyrrolidin-2-ylmethyl]-3,4-dihydroquinazoline-4-carboxamide]: below 100 nM. The same measure for `Cc1cc(Cl)cc(N2C=Nc3ccc(-c4cc(O)ccc4Cl)cc3C2C(=O)N(C)C[C@@H]2CCCN2)c1` (stereo partly drawn) [Compound 1-30, 6-(2-chloro-5-hydroxyphenyl)-3-(3-chloro-5-methylphenyl)-N-methyl-N-[(2S)-pyrrolidin-2-ylmethyl]-3,4-dihydroquinazoline-4-carboxamide]: below 100 nM.

Take `Cc1cc(Cl)cc(N2C=Nc3cc(C)c(-c4cccc(S(C)(=O)=O)c4)cc3C2C(=O)N(C)C[C@@H]2CCCN2)c1` (stereo partly drawn) [Compound 1-46, 3-(3-chloro-5-methylphenyl)-6-(3-methanesulfonylphenyl)-N,7-dimethyl-N-[(2S)-pyrrolidin-2-ylmethyl]-3,4-dihydroquinazoline-4-carboxamide]: the 50% effective concentration (EC50) lay within 100 to 1000 nM.

With `Cc1cc(Cl)cc(N2C=Nc3cc(C)c(-c4cc(C(N)=O)ccc4Cl)cc3C2C(=O)N(C)C[C@@H]2CCCN2)c1` (stereo partly drawn) [Compound 2-29, 6-(5-carbamoyl-2-chlorophenyl)-3-(3-chloro-5-methylphenyl)-N,7-dimethyl-N-[(2S)-pyrrolidin-2-ylmethyl]-3,4-dihydroquinazoline-4-carboxamide], the EC50 is below 100 nM. In the case of `Cc1cc(Cl)cc(N2C=Nc3cc(C)c(-c4cccc(C(N)=O)n4)cc3C2C(=O)N(C)C[C@@H]2CCCN2)c1` (stereo partly drawn) [Compound 2-11, 6-(6-carbamoylpyridin-2-yl)-3-(3-chloro-5-methylphenyl)-N,7-dimethyl-N-[(2S)-pyrrolidin-2-ylmethyl]-3,4-dihydroquinazoline-4-carboxamide] it was below 100 nM; in that of `Cc1cc(Cl)cc(N2C=Nc3cc(C)c(-c4cccc(C#N)c4C)cc3C2C(=O)N(C)C[C@@H]2CCCN2)c1` (stereo partly drawn) [Compound 1-44, 3-(3-chloro-5-methylphenyl)-6-(3-cyano-2-methylphenyl)-N,7-dimethyl-N-[(2S)-pyrrolidin-2-ylmethyl]-3,4-dihydroquinazoline-4-carboxamide], below 100 nM; in that of `CC[C@H](N)CN(C)C(=O)C1c2cc(-c3cc(C)cc(O)c3)c(Cl)cc2N=CN1c1cc(C)cc(C)c1` (stereo partly drawn) [Compound 1-7, N-[(2S)-2-aminobutyl]-7-chloro-3-(3,5-dimethylphenyl)-6-(3-hydroxy-5-methylphenyl)-N-methyl-3,4-dihydroquinazoline-4-carboxamide], below 100 nM. The same measure for `Cc1cc(C)cc(N2C=Nc3cc(C)c(-c4cccc(O)c4)cc3C2C(=O)NC[C@@H]2CCCN2)c1` (stereo partly drawn) [Compound 1-51, 3-(3,5-dimethylphenyl)-6-(3-hydroxyphenyl)-7-methyl-N-[(2S)-pyrrolidin-2-ylmethyl]-3,4-dihydroquinazoline-4-carboxamide]: 1000 to 10000 nM; for `COc1cc(C#N)cc(-c2cc3c(cc2C)N=CN(c2cc(C)cc(Cl)c2)C3C(=O)N(C)C[C@@H]2CCCN2)c1` (stereo partly drawn) [Compound 2-24, 3-(3-chloro-5-methylphenyl)-6-(3-cyano-5-methoxyphenyl)-N,7-dimethyl-N-[(2S)-pyrrolidin-2-ylmethyl]-3,4-dihydroquinazoline-4-carboxamide]: below 100 nM. In the case of `Cc1cc(Cl)cc(N2C=Nc3cc(C)c(-c4ccc(F)cc4C)cc3C2C(=O)N(C)C[C@@H]2CCCN2)c1` (stereo partly drawn) [Compound 2-8, 3-(3-chloro-5-methylphenyl)-6-(4-fluoro-2-methylphenyl)-N,7-dimethyl-N-[(2S)-pyrrolidin-2-ylmethyl]-3,4-dihydroquinazoline-4-carboxamide] it was below 100 nM; in that of `CC[C@H](N)CN(C)C(=O)C1c2cc(-c3cccc(O)c3)c(C)cc2N=CN1c1cc(C)cc(Cl)c1` (stereo partly drawn) [Compound 1-13, N-[(2S)-2-aminobutyl]-3-(3-chloro-5-methylphenyl)-6-(3-hydroxyphenyl)-N,7-dimethyl-3,4-dihydroquinazoline-4-carboxamide], below 100 nM; in that of `COc1ccc(Cl)c(-c2cc3c(cc2C)N=CN(c2cc(C)cc(Cl)c2)C3C(=O)N(C)C[C@@H]2CCCN2)c1` (stereo partly drawn) [Compound 2-3, 6-(2-chloro-5-methoxyphenyl)-3-(3-chloro-5-methylphenyl)-N,7-dimethyl-N-[(2S)-pyrrolidin-2-ylmethyl]-3,4-dihydroquinazoline-4-carboxamide], below 100 nM.

On to `Cc1cc(Cl)cc(N2C=Nc3cc(C)c(-c4cc(C(F)(F)F)cnc4Cl)cc3C2C(=O)N(C)C[C@@H]2CCCN2)c1` (stereo partly drawn) [Compound 2-19, 6-[2-chloro-5-(trifluoromethyl)pyridin-3-yl]-3-(3-chloro-5-methylphenyl)-N,7-dimethyl-N-[(2S)-pyrrolidin-2-ylmethyl]-3,4-dihydroquinazoline-4-carboxamide], for which the EC50 was below 100 nM.

The term EC50 denotes the midpoint of the concentration-response curve.
